We go through 4 compounds from ChEMBL document CHEMBL5465560, “Selectivity Literature for EUbOPEN Chemogenomic Library” (2024).

Assay [1] has as its target T1, NUAK family SNF1-like kinase 2 (Homo sapiens) (UniProt Q9H093).
T1 sequence (whole entry): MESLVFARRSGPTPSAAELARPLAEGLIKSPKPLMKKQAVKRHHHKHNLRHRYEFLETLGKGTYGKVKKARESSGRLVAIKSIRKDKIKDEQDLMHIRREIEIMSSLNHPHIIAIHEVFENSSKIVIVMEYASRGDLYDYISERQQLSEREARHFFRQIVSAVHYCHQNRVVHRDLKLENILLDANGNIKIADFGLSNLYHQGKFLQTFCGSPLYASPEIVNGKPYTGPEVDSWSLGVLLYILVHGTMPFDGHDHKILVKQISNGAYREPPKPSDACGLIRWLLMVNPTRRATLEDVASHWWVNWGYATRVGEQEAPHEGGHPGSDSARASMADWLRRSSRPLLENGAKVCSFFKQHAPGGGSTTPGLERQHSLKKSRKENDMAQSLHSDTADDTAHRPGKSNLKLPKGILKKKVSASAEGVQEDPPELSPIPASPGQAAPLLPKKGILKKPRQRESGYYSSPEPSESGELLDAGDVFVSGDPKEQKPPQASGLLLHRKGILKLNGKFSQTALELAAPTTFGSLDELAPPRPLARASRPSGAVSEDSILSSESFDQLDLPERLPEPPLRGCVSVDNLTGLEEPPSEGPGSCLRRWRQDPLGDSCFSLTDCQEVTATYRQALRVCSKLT
Description: Selectivity interaction (KinomeScan (DiscoverX)) EUB0000655a NUAK2. Conditions: at 10 µM.

Assay [2] concerns the target T2, Mitogen-activated protein kinase kinase kinase 7 (Homo sapiens) (UniProt O43318).
T2 sequence (whole entry): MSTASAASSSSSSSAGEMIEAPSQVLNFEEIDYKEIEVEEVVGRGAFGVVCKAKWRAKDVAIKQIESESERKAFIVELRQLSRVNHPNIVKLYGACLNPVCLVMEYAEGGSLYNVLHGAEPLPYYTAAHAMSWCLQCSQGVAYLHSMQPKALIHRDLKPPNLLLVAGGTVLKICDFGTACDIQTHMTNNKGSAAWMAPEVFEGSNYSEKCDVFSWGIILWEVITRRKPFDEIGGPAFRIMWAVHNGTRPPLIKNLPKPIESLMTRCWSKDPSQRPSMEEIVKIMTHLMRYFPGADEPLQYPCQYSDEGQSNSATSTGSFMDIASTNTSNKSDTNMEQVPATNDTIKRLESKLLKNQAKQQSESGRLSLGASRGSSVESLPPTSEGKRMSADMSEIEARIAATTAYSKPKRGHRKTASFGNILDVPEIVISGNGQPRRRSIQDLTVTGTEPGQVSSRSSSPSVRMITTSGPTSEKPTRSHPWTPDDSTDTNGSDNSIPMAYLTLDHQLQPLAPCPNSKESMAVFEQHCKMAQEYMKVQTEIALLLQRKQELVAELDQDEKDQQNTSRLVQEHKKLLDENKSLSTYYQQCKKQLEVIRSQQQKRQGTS
The experiment in a line: Selectivity interaction (KinomeScan (DiscoverX)) EUB0000655a MAP3K7. The note with it: at 10 µM.

The target of assay [3] is T3, Mitogen-activated protein kinase kinase kinase 3 (Homo sapiens) (UniProt Q99759).
T3 sequence (whole entry): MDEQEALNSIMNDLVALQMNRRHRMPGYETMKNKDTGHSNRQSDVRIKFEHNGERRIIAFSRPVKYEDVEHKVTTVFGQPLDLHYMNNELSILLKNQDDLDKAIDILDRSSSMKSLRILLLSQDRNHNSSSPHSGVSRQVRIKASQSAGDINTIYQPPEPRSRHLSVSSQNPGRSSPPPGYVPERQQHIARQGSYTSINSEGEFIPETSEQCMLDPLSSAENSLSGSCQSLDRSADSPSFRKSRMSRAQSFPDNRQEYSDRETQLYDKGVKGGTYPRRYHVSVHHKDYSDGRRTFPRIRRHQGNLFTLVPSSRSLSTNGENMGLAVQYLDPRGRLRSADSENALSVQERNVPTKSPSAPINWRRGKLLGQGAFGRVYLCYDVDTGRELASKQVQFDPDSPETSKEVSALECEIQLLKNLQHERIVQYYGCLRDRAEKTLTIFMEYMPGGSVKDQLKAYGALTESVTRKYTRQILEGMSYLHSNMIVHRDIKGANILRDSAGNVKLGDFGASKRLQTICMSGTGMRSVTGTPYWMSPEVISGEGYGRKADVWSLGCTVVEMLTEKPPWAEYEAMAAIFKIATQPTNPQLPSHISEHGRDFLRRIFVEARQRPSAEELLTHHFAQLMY
Description: Selectivity interaction (Kinase panel (Invitrogen)) EUB0000639a MAP3K3. The note with it: at 200 nM.

For assay [4], the target named is T4, Ephrin type-B receptor 4 (Homo sapiens) (UniProt P54760).
T4 sequence (whole entry): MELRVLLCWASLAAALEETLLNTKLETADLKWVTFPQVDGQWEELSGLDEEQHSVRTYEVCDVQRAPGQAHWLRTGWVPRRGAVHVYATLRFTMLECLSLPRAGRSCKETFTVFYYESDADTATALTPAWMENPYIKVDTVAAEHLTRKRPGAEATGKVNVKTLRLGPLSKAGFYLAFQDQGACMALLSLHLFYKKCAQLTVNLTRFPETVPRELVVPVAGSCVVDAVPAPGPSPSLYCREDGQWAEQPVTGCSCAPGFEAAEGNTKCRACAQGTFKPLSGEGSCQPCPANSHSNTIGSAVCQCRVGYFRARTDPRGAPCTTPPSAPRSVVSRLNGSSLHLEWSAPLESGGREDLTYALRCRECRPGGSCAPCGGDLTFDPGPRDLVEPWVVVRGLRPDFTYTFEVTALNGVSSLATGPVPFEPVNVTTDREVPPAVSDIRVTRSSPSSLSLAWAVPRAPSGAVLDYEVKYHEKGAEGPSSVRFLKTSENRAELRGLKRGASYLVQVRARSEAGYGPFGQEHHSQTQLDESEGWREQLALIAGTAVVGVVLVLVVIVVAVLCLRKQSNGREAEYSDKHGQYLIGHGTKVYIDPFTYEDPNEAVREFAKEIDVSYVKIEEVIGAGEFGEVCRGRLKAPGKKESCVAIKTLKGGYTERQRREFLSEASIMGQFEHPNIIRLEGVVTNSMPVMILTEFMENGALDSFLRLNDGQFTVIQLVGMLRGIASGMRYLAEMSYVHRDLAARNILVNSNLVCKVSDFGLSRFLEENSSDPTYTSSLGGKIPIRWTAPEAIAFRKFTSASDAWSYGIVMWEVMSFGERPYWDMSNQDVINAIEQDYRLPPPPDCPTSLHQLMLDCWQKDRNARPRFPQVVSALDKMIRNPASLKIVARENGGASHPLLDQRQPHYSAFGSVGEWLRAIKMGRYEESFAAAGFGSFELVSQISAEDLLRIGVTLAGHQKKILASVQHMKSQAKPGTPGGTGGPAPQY
The experiment in a line: Selectivity interaction (Millipore kinase profiler) EUB0000124b EPHB4. Conditions: at 10 µM.

Assay [5] deals with Serine/threonine-protein kinase 35 (Homo sapiens) (UniProt Q8TDR2). Description: Selectivity interaction (KinomeScan (DiscoverX)) EUB0000045b STK35.
Serine/threonine-protein kinase 35 (Homo sapiens), sequence (Q8TDR2 whole entry): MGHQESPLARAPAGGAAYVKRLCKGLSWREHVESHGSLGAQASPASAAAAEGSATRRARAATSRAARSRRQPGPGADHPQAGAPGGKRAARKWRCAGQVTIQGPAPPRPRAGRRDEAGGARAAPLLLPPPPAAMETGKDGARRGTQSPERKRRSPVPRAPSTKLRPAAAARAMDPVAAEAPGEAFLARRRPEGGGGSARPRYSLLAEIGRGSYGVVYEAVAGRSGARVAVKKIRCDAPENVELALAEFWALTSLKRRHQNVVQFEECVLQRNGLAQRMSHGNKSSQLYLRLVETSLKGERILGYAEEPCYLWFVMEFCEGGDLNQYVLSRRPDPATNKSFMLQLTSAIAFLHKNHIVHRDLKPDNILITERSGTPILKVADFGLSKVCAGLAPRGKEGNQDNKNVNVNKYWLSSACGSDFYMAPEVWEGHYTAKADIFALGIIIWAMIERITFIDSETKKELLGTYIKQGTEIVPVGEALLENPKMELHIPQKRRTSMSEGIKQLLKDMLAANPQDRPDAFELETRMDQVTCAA

Consider `CN(C)CCOc1ccc(-c2nc(-c3ccncc3)c(-c3ccc4c(c3)CC/C4=N\O)[nH]2)cc1`, for which the % of control in assay [1] stood at 95%; in assay [2], 89%.

As for `CC[C@@H]1[C@H](F)C(=O)N[C@@H]1COc1nccc2cc(C(N)=O)c(OC)cc12` [ZIMLOVISERTIB], in assay [3], the % of inhibition was -5.54%.

In assay [4], `CC(=O)Nc1cccc(-n2c(=O)n(C3CC3)c(=O)c3c(Nc4ccc(I)cc4F)n(C)c(=O)c(C)c32)c1` returned a % of control of 124%.

With `C=CC(=O)Nc1cc(-n2c(=O)ccc3cnc4ccc(-c5ccc(NS(C)(=O)=O)cc5)cc4c32)ccc1C`, the % of control in assay [5] (at 1 µM) and in assay [5] (at 10 µM) was 100% in each case.
